Here are results for four compounds from US20200038399A1, “FORMULATIONS, METHODS, KIT, AND DOSAGE FORMS FOR TREATING BACTERIAL INFECTION” (Motif BioSciences Inc., priority 2016, published 2020).

Experiment [1] deals with Haemophilus influenzae ATCC 49766. The experiment in a line: MIC determination. The experiment is classed as cell-based. Particulars: Haemophilus influenzae, ATCC49766; H. Influenza 49766; 18 hours at 37° C., 5% CO2; read-out: Minimum inhibitory concentrations (MIC). How it is done: (§1) Minimum inhibitory concentration (MIC) determination.
(§2) In order to choose the appropriate concentrations to be tested in the checkerboard experiments, minimum inhibitory concentrations (MICs) were determined first. […] Table 6) in microtiter plates. Stock solutions (10 mg/ml) of reference antibiotics were prepared in DMSO (except for tobramycin, gentamicin, lomefloxacin, tetracycline) and stored at 4° C. The bacteria were grown in Mueller-Hinton Broth (BBL Mueller-Hinton Broth II, cation adjusted). S. pneumoniae was grown in Mueller-Hinton Broth supplemented with 5% (v/v) lysed sheep blood. For the growth of H. influenzae HTM (Haemophilus test medium) was used containing Mueller-Hinton broth, yeast extract ([…], Difco) and supplemented with NAD and hematin (HTM Supplement, Oxoid SR0158E). M. catarrhalis was grown in Brain Heart Infusion medium (Oxoid). The bacteria were incubated for 18 hours at 37° C. in ambient air except for S. pneumoniae, H. influenzae and M. catarrhalis, which were incubated in the presence of 5% CO2. The MIC was determined as the lowest concentration of an individual drug that lead to no visible growth.

Experiment [2] deals with Klebsiella pneumoniae ATCC 33495. Kind of experiment: MIC determination. It is filed as cell-based. Particulars: Klebsiella pneumoniae, ATCC33495; K. pneumonia 33495; 18 hours at 37° C.; read-out: Minimum inhibitory concentrations (MIC). How it is done: as §1, §2
The test system of experiment [3] is Moraxella catarrhalis RA 21. The experiment in a line: MIC determination. Particulars: Moraxella catarrhalis, RA21; M. catarrhalis RA 21; 18 hours at 37° C., 5% CO2; read-out: Minimum inhibitory concentrations (MIC). The experiment is classed as cell-based. How it is done:
as §1, §2

The subject of experiment [4] is Streptococcus pneumoniae ATCC 49619. The experiment in a line: MIC determination. The experiment is classed as cell-based. As to conditions: Streptococcus pneumoniae, ATCC49619; S. pneumoniae 49619; 18 hours at 37° C., 5% CO2; read-out: Minimum inhibitory concentrations (MIC). The protocol: as §1, §2
Experiment [5] concerns Staphylococcus aureus ATCC 25923. The experiment in a line: MIC determination. The experiment is classed as cell-based. As to conditions: Staphylococcus aureus, ATCC25923; S. aureus 25923; 18 hours at 37° C.; read-out: Minimum inhibitory concentrations (MIC). How it is done:
as §1, §2

The test system of experiment [6] is S. pneumoniae 1/1. The experiment in a line: MIC determination. Particulars: Streptococcus pneumoniae; S. pneumoniae 1/1; 18 hours at 37° C., 5% CO2; read-out: Minimum inhibitory concentrations (MIC). It is filed as cell-based, Streptococcus pneumoniae. The protocol: as §1, §2
Experiment [7] relates to Haemophilus influenzae ATCC 49766. Kind of experiment: checkerboard synergy assay with iclaprim. It is filed as cell-based. As to conditions: antibiotic in combination with iclaprim; H. influenzae 49766. How it is done: (§3) The synergistic potential of iclaprim against Gram-positive and Gram-negative bacteria was determined using the checkerboard assay as described in Eliopoulos GM and Moellering, Jr. RC (1991), Antimicrobial combinations, pp. 432-492, in V. Lorian (ed.), Antibiotics in laboratory medicine, 3rd Ed., The Williams & Wilkins Co., Baltimore, the entire disclosure of which is herein incorporated by reference, allowing multiple test concentrations of iclaprim to be assayed in the presence of various concentrations of the other antibiotic in microtiter plates. The same growth media and conditions were used as described in 3.2 below.
(§4) Two different dilutions were used for iclaprim depending on the MIC determined for the bacterium. […] Iclaprim and the other antibiotic being tested were also dispensed alone in the last row and in the last column, respectively, as controls.
(§5) The Fractional Inhibitory Concentrations (FIC) for each added agent were calculated and used to determine the sum of FIC (ΣFIC) indicative of the synergistic potential of a given combination as described in Veyssier P. (1999), Inhibiteurs de la dihydrofolate reductase, nitrohétérocycles (furanes) et 8-hydroxyquinoleines, pp. 995-1027, in A. Bryskier (ed.), Antibiotiques agents antibatériens et antifongiques, 1st Ed., Ellipses Edition Marketing SA, Paris, the entire disclosure of which is herein incorporated by reference. Synergy was defined whereby the ΣFIC was <0.5, indifference (no synergy nor antagonism) whereby ΣFIC was ≥0.5 but ≤4, and antagonism whereby ΣFIC was >4. Additivity as a special form of indifference was defined whereby the ΣFIC was ≥0.5 but <1, for example as described in Stevens, D L et al. (1998), In vitro antimicrobial effects of various combinations of penicillin and clindamycin against four strains of Streptococcus pyogenes, J. Antimicrob. Chemother. 42: 1266-1268, the entire disclosure of which is herein incorporated by reference.

For experiment [8], the system named is Klebsiella pneumoniae ATCC 33495. Kind of experiment: checkerboard synergy assay with iclaprim. It is filed as cell-based. Particulars: antibiotic in combination with iclaprim; K. pneumoniae 33495. The protocol: as §3, §4, §5
The test system of experiment [9] is Moraxella catarrhalis RA 21. Kind of experiment: checkerboard synergy assay with iclaprim. As to conditions: antibiotic in combination with iclaprim; M. catarrhalis RA 21. It is filed as cell-based. The protocol: as §3, §4, §5
Experiment [10] relates to Staphylococcus aureus ATCC 25923. Kind of experiment: checkerboard synergy assay with iclaprim. It is filed as cell-based. As to conditions: antibiotic in combination with iclaprim; S. aureus 25923. How it is done: as §3, §4, §5
In experiment [11] the test system is S. aureus 101. Kind of experiment: MIC determination. It is filed as cell-based, Staphylococcus aureus. As to conditions: Staphylococcus aureus, 101, 18 h; read-out: Minimum inhibitory concentrations (MIC). How it is done:
as §1, §2

Experiment [12] deals with S. aureus 101. The experiment in a line: checkerboard synergy assay with iclaprim. It is filed as cell-based, Staphylococcus aureus. Particulars: antibiotic in combination with iclaprim. How it is done:
as §3, §4, §5

The test system of experiment [13] is S. pneumoniae 1/1. Kind of experiment: checkerboard synergy assay with iclaprim. It is filed as cell-based, Streptococcus pneumoniae. As to conditions: antibiotic in combination with iclaprim. The protocol: as §3, §4, §5
For experiment [14], the system named is Streptococcus pneumoniae ATCC 49619. The experiment in a line: checkerboard synergy assay with iclaprim. As to conditions: antibiotic in combination with iclaprim; S. pneumoniae 49619. The experiment is classed as cell-based. How it is done:
as §3, §4, §5

Take `CC1(C)S[C@@H]2[C@H](NC(=O)[C@H](N)c3ccccc3)C(=O)N2[C@H]1C(=O)O` [Ampicillin]: the MIC in [1] was 1 µg/mL; in [2] it was greater than 128 µg/mL; in experiment [3], 16 µg/mL; in experiment [4], 0.5 µg/mL; in experiment [5], 0.5 µg/mL; in experiment [6], 16 µg/mL. For the same compound, the MIC in experiment [11] is greater than 128 µg/mL. The “Con (Conclusion)” value in [7] is “Ind (Indifference (Ind))”; in experiment [8], “Ad (Additivity (Ad))”; in [9], “Ind (Indifference (Ind))”. Moreover, the “Σ FIC” value was 1.13-1.50 in experiment [7] and 1.00-1.00 in experiment [10].

In the case of `CO/N=C(\C(=O)N[C@@H]1C(=O)N2C(C(=O)O)=C(COC(C)=O)CS[C@H]12)c1csc(N)n1` [Cefotaxime], the “Σ FIC” value in experiment [12] is 1.06-1.50; in experiment [8], 1.13-1.50; in experiment [9] it was 0.56-1.03; in experiment [10], 1.03-1.50; in experiment [13], 0.63-1.06. Moreover, the MIC was found to be 0.063 µg/mL in [1]; 0.5 µg/mL in [2]; 4 µg/mL in [3]; 0.25 µg/mL in experiment [4]; 4 µg/mL in [5]; 8 µg/mL in [6]. The MIC in experiment [11] was 32 µg/mL. The “Con (Conclusion)” value is “Ad (Additivity (Ad))” in experiment [7], “Ind (Indifference (Ind))” in experiment [8] and “Ad (Additivity (Ad))” in experiment [9].

With `O=C(N[C@H](CO)[C@H](O)c1ccc([N+](=O)[O-])cc1)C(Cl)Cl` [Chloramphenicol], the “Σ FIC” value in [12] was 0.63-1.13; in [7] it was 1.06-1.50; in experiment [8], 1.01-1.50; in experiment [9] it was 1.25-1.50; in experiment [14], 0.75-1.25; in experiment [10], 1.13-2.50. The MIC was 0.5 µg/mL in [1]; greater than 128 µg/mL in experiment [2]; 0.5 µg/mL in experiment [3]; 4 µg/mL in experiment [4]; 8 µg/mL in experiment [5]; 16 µg/mL in [6]. In addition, the MIC in experiment [11] turned out to be 64 µg/mL. In addition, the “Con (Conclusion)” value in [7], in [8] and in [9] was “Ind (Indifference (Ind))” throughout.

As to `CO[C@H]1/C=C/O[C@@]2(C)Oc3c(C)c(O)c4c(O)c(c(/C=N/N5CCN(C)CC5)c(O)c4c3C2=O)NC(=O)/C(C)=C\C=C\[C@H](C)[C@H](O)[C@@H](C)[C@@H](O)[C@@H](C)[C@H](OC(C)=O)[C@@H]1C` [Rifampicin], the MIC in experiment [1] was 0.063 µg/mL; in [2] it was greater than 128 µg/mL; in experiment [3] it was 0.063 µg/mL; in experiment [4] it was 0.031 µg/mL; in experiment [5], 0.031 µg/mL; in experiment [6], 0.063 µg/mL. In addition, in experiment [11], the MIC was determined as 0.031 µg/mL. Further, the figures for the “Con (Conclusion)” value in experiment [7], in experiment [8] and in experiment [9] were “Ind (Indifference (Ind))”, “Ind (Indifference (Ind))” and “Ad (Additivity (Ad))”, respectively. In addition, the “Σ FIC” value in experiment [7] is reported as 1.12-1.50; in experiment [8] it was 1.01-1.50; in experiment [9] it was 0.75-1.12; in experiment [14], 0.75-0.76; in experiment [13], 0.56-1.12.
